# According to BindingDB's records for doi:10.1016/s0960-894x(98)00738-0 (Cubist Pharmaceuticals, 1999):
# What was measured:
# [1] = biological target: Leucine--tRNA ligase (Escherichia coli) (UniProt P07813); assay: Compound tested for the inhibition of Escherichia coli Leucyl-tRNA synthetase
# [2] = biological target: Alanine--tRNA ligase (Escherichia coli) (UniProt P00957); assay: Compound tested for the inhibition of Escherichia coli Alanine-tRNA synthetase
# [3] = biological target: Isoleucine--tRNA ligase (Escherichia coli) (UniProt P00956); assay: Inhibition of Escherichia coli isoleucyl-tRNA synthetase
# Chain of Isoleucine--tRNA ligase (Escherichia coli) (P00956 whole entry, looked up): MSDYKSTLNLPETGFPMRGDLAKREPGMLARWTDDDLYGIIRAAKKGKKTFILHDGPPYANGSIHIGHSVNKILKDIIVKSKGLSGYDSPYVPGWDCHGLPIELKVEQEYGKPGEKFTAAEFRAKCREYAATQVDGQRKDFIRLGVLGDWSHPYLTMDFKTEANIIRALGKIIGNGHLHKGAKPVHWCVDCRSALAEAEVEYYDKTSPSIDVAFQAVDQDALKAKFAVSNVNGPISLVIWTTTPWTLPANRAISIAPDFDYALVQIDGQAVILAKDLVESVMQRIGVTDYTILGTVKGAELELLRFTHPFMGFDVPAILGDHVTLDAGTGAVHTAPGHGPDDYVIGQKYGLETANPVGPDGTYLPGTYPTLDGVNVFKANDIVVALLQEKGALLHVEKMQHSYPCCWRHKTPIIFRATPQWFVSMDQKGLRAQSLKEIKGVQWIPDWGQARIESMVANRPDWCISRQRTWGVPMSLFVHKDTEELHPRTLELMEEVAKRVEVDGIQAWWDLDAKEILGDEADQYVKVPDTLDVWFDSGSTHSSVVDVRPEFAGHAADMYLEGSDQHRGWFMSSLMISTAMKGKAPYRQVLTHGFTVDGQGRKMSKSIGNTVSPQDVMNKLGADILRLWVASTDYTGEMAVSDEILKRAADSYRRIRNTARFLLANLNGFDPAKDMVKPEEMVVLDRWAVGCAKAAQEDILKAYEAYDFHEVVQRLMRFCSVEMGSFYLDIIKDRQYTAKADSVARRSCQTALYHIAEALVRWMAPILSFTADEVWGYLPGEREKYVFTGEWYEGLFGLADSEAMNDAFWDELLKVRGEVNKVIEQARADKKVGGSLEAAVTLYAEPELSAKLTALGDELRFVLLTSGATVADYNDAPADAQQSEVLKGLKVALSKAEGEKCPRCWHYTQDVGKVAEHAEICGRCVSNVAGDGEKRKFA
# Chain of Leucine--tRNA ligase (Escherichia coli) (P07813 whole entry, looked up): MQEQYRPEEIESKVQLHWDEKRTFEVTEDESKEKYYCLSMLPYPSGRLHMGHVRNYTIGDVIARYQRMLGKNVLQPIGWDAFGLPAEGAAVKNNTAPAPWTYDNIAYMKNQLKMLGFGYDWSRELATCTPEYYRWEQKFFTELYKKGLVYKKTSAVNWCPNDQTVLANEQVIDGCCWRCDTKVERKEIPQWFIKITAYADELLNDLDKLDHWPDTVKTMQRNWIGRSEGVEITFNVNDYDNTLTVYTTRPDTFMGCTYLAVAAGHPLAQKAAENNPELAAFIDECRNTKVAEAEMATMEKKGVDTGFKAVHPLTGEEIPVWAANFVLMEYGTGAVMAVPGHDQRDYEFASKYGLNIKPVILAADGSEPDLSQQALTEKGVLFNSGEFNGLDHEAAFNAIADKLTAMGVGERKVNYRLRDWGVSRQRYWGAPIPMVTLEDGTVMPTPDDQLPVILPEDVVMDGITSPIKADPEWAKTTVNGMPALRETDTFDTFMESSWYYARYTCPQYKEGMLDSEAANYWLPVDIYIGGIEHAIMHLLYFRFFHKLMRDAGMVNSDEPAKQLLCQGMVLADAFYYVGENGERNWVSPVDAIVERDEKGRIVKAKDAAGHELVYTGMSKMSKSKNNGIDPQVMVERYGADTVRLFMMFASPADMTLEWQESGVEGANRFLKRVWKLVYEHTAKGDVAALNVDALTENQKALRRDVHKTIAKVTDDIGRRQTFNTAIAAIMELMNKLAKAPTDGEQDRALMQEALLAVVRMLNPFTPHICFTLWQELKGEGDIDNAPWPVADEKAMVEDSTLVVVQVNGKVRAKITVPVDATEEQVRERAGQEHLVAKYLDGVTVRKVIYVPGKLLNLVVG
# Chain of Alanine--tRNA ligase (Escherichia coli) (P00957 whole entry, looked up): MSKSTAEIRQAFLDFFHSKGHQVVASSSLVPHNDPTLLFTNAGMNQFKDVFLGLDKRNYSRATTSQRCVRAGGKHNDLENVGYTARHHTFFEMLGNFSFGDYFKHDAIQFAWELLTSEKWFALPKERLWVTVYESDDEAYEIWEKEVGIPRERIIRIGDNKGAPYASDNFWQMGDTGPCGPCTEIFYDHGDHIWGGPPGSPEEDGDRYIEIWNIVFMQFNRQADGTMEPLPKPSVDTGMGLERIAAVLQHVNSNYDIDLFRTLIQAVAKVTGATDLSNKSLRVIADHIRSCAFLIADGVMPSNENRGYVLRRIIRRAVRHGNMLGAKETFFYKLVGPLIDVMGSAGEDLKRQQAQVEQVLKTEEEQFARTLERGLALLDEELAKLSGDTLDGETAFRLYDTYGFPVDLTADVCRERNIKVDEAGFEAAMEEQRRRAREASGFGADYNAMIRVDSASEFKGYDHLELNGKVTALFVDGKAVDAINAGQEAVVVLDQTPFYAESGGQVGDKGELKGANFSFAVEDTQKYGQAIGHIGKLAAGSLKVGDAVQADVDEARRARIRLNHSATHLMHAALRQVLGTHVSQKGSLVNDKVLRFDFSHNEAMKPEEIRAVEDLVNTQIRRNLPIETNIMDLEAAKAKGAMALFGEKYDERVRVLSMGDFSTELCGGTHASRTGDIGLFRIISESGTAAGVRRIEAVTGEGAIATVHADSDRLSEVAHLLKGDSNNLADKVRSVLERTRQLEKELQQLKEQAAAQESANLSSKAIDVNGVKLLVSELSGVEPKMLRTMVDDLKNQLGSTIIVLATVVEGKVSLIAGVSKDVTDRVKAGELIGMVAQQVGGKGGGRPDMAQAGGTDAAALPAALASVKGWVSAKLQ
Compound,IC50 [1] [nM],IC50 [2] [nM],IC50 [3] [nM]
"CC(C)C[C@H](N)C(=O)NS(=O)(=O)OC[C@H]1O[C@@H](c2nc(CCc3ccccc3)cs2)[C@H](O)[C@@H]1O [((S)-2-Amino-4-methyl-pentanoyl)-sulfamic acid (2R,3S,4R,5R)-3,4-dihydroxy-5-(4-phenethyl-thiazol-2-yl)-tetrahydro-furan-2-ylmethyl ester]",< 2,,
"N[C@@H](Cc1ccccc1)C(=O)NS(=O)(=O)OC[C@H]1O[C@@H](c2nc(-c3ccccc3)cs2)[C@H](O)[C@@H]1O [((S)-2-Amino-3-phenyl-propionyl)-sulfamic acid (2R,3S,4R,5R)-3,4-dihydroxy-5-(4-phenyl-thiazol-2-yl)-tetrahydro-furan-2-ylmethyl ester]",> 100000,> 100000,> 100000
"CC(C)[C@H](N)C(=O)NS(=O)(=O)OC[C@H]1O[C@@H](c2nc(-c3ccccc3)cs2)[C@H](O)[C@@H]1O [((S)-2-Amino-3-methyl-butyryl)-sulfamic acid (2R,3S,4R,5R)-3,4-dihydroxy-5-(4-phenyl-thiazol-2-yl)-tetrahydro-furan-2-ylmethyl ester]",14000,> 100000,15000
"CCC(C)[C@H](N)C(=O)NS(=O)(=O)OC[C@H]1O[C@@H](c2nc(-c3cccc(OC)c3)cs2)[C@H](O)[C@@H]1O (stereo partly drawn) [((S)-2-Amino-3-methyl-pentanoyl)-sulfamic acid (2R,3S,4R,5R)-3,4-dihydroxy-5-[4-(3-methoxy-phenyl)-thiazol-2-yl]-tetrahydro-furan-2-ylmethyl ester]",,,15
"CC(C)C[C@H](N)C(=O)NS(=O)(=O)OC[C@H]1O[C@@H](c2nc(-c3ccc(Oc4ccccc4)cc3)cs2)[C@H](O)[C@@H]1O [((S)-2-Amino-4-methyl-pentanoyl)-sulfamic acid (2R,3S,4R,5R)-3,4-dihydroxy-5-[4-(4-phenoxy-phenyl)-thiazol-2-yl]-tetrahydro-furan-2-ylmethyl ester]",1.6,,
"CCC(C)[C@H](N)C(=O)NS(=O)(=O)OC[C@H]1O[C@@H](c2nc(-c3ccc(OC)cc3)cs2)[C@H](O)[C@@H]1O (stereo partly drawn) [((S)-2-Amino-3-methyl-pentanoyl)-sulfamic acid (2R,3S,4R,5R)-3,4-dihydroxy-5-[4-(4-methoxy-phenyl)-thiazol-2-yl]-tetrahydro-furan-2-ylmethyl ester]",,,100
"C[C@H](N)C(=O)NS(=O)(=O)OC[C@H]1O[C@@H](c2nc(-c3ccccc3)cs2)[C@H](O)[C@@H]1O [((S)-2-Amino-propionyl)-sulfamic acid (2R,3S,4R,5R)-3,4-dihydroxy-5-(4-phenyl-thiazol-2-yl)-tetrahydro-furan-2-ylmethyl ester]",> 100000,> 100000,100000
"CC[C@H](C)[C@H](N)C(=O)NS(=O)(=O)OC[C@H]1O[C@@H](c2nc(-c3ccccc3)cs2)[C@H](O)[C@@H]1O [((2S,3S)-2-Amino-3-methyl-pentanoyl)-sulfamic acid (2R,3S,4R,5R)-3,4-dihydroxy-5-(4-phenyl-thiazol-2-yl)-tetrahydro-furan-2-ylmethyl ester]",,> 100000,100
"N[C@@H](Cc1cnc[nH]1)C(=O)NS(=O)(=O)OC[C@H]1O[C@@H](c2nc(-c3ccccc3)cs2)[C@H](O)[C@@H]1O [[(S)-2-Amino-3-(3H-imidazol-4-yl)-propionyl]-sulfamic acid (2R,3S,4R,5R)-3,4-dihydroxy-5-(4-phenyl-thiazol-2-yl)-tetrahydro-furan-2-ylmethyl ester]",> 100000,> 100000,> 100000
"CCC(C)[C@H](N)C(=O)NS(=O)(=O)OC[C@H]1O[C@@H](c2nc(-c3ccccc3OC)cs2)[C@H](O)[C@@H]1O (stereo partly drawn) [((S)-2-Amino-3-methyl-pentanoyl)-sulfamic acid (2R,3S,4R,5R)-3,4-dihydroxy-5-[4-(2-methoxy-phenyl)-thiazol-2-yl]-tetrahydro-furan-2-ylmethyl ester]",,,30
"CCC(C)[C@H](N)C(=O)NS(=O)(=O)OC[C@H]1O[C@@H](c2nc(-c3ccc(Oc4ccccc4)cc3)cs2)[C@H](O)[C@@H]1O (stereo partly drawn) [((S)-2-Amino-3-methyl-pentanoyl)-sulfamic acid (2R,3S,4R,5R)-3,4-dihydroxy-5-[4-(4-phenoxy-phenyl)-thiazol-2-yl]-tetrahydro-furan-2-ylmethyl ester]",,,45
"CC(C)C[C@H](N)C(=O)NS(=O)(=O)OC[C@H]1O[C@@H](c2nc(CCc3ccc(Oc4ccccc4)cc3)cs2)[C@H](O)[C@@H]1O [((S)-2-Amino-4-methyl-pentanoyl)-sulfamic acid (2R,3S,4R,5R)-3,4-dihydroxy-5-{4-[2-(4-phenoxy-phenyl)-ethyl]-thiazol-2-yl}-tetrahydro-furan-2-ylmethyl ester]",6,,
"CCC(C)[C@H](N)C(=O)NS(=O)(=O)OC[C@H]1O[C@@H](c2nc(CCc3ccccc3)cs2)[C@H](O)[C@@H]1O (stereo partly drawn) [((S)-2-Amino-3-methyl-pentanoyl)-sulfamic acid (2R,3S,4R,5R)-3,4-dihydroxy-5-(4-phenethyl-thiazol-2-yl)-tetrahydro-furan-2-ylmethyl ester]",,,30
"CCC(C)[C@H](N)C(=O)NS(=O)(=O)OC[C@H]1O[C@@H](c2nc(CCc3ccc(Oc4ccccc4)cc3)cs2)[C@H](O)[C@@H]1O (stereo partly drawn) [((S)-2-Amino-3-methyl-pentanoyl)-sulfamic acid (2R,3S,4R,5R)-3,4-dihydroxy-5-{4-[2-(4-phenoxy-phenyl)-ethyl]-thiazol-2-yl}-tetrahydro-furan-2-ylmethyl ester]",,,110
"CCC(C)[C@H](N)C(=O)NS(=O)(=O)OC[C@H]1O[C@@H](c2nc(-c3ccc4cc(OC)ccc4c3)cs2)[C@H](O)[C@@H]1O (stereo partly drawn) [((S)-2-Amino-3-methyl-pentanoyl)-sulfamic acid (2R,3S,4R,5R)-3,4-dihydroxy-5-[4-(6-methoxy-naphthalen-2-yl)-thiazol-2-yl]-tetrahydro-furan-2-ylmethyl ester]",,,20
